We go through seven compounds from patent US20120128754A1, “TREATMENT OF EYE DISCOMFORT BY TOPICAL ADMINISTRATION OF A COOLING AGENT TO THE EXTERNAL SURFACE OF THE EYELID” (priority 2009, published 2012).

The subject of series [1] is closed eyelids. Nature of the series: Eye wipe test: cooling sensations after wiping test solution over closed eyelids. It counts as in vivo, human. To be noted: for quality of cooling sensation: CPS-369 1 and 2 mg/mL, CPS-160 2 mg/mL, CPS-030 1, 2, 4, 8 mg/mL; for cooling potency relative to CPS-030: in vivo. As to the method:
The general procedure for testing was to weigh an active ingredient and to disperse it within a saline solution (i.e., Bausch & Lomb, Sensitive Eyes Plus Saline Solution) at stock concentrations of 10 to 20 mg/mL. Test solutions were further diluted with isotonic saline. For single assays, a 1 mL scaled pipette was used to dispense 0.8 to 1 mL of test solution onto a sterile 2″×2″ (5 cm×5 cm) pad, made of rayon-polyester formed fabric (Walgreens Sterile Gauze Pads) weighing on average 285±9 mg.
In the next trials, the wet pad was wiped twice over the closed eyelids of each eye from the medial to the lateral canthus. By subtraction, the loss of weight of the pad averaged 32±1 mg. Thus, each eye received ˜16 μL of the test solution per eye. For a 1 mg/mL solution this was equivalent to ˜16 μg per eye.
The presence of cooling sensations was recorded at 2 and 5 minutes after wiping and at 5 minute intervals thereafter. The intensity of the subjective eye sensation was rated as 0, 1, 2 or 3 with: 0 as no change; 1 as slight coolness or cold; 2 as clear-cut signal of coolness or cold; and 3 as comfortable and soothing sensations of cooling or cold. Recording was continued until two successive zeroes were obtained. The data were plotted using SigmaPlot™ (Systat Software, Point Richmond Calif.).
The results for compound CPS-030 are illustrated in FIG. 1, and reflect the averaged values of 6 to 8 separate trials in the same individual.
FIG. 1 is a graph of cooling intensity versus hours after application of CPS-030 with eye wipes for four dosages (128 μg, 64 μg, 32 μg, and 16 μg; per eye), and illustrates the dose-response data for CPS-030 on cooling sensations after application with eye wipes. The dose reported in μg is per eye, based on solutions of 1.0, 2.0, 4.0 and 8.0 mg of CPS-030 per mL of saline, applied in a volume of 16 μL per eye. […] Confirmatory trials of cooling action for CPS-030 were obtained in 4 individuals.

A short description of series [2]: Stability of test solutions stored at room temperature (retention of cooling activity). It is filed as physicochemical. To be noted: saline solution. An excerpt:
(§1) 2-[((1R,2S,5R)-2-isopropyl-5-methyl-cyclohexanecarbonyl)-amino]-acetic acid 3-hydroxypropyl ester, referred to as CPS-160 (see, e.g., Wei, 2008) was synthesized and tested. […] Thus, CPS-160 was not considered to be an optimal cooling agent for practicing the invention.
(§2) It has a good safety profile because the expected hydrolysis products are the carboxylic acid and glycerol.

Series [3] can be described thus: Observed solubility in vehicle. Conditions: for solubility in 1 or 2% ethanol-water solution: higher concentrations not achievable without more ethanol. It counts as physicochemical.
Source text: Wei, 2008 describes delivery of cooling compounds to the skin using a towelette. The wiping of the towelette across skin results in delivery of dermatologically active ingredient(s), meaning that the skin is substantially medicated. […] An ethanol/water mixture with an ethanol concentration of about 5 wt % is required in order to dissolve enough of these compounds to provide a sufficient degree of cooling to relieve eye discomfort; however, at this concentration the ethanol is irritating to the eye surface.
as §1, §2
Thus, water solubility, as embodied in CPS-030, is a key factor for an ideal API.

The subject of series [4] is closed eyelids. Nature of the series: Case reports: eye wipe in subjects with eye strain or dry eyes syndrome. Conditions: person. It is filed as in vivo, human. As to the method:
A person routinely spent about 12 hour each day in front of a computer monitor and developed headaches and blurred vision. A visit to a general physician gave a diagnosis of eye strain, but the addiction to the computer monitor continued. The subject found some relief by putting a cold wet towel on their face, but the relief was only temporary. They volunteered to test an eye wipe containing 0.8 mL of a 4 mg/mL solution of CPS-030 and was given instructions on how to wipe the solution onto the eyelids with the eyes closed. […] During this time, the subject watched a basketball playoff game on television and noted that they could clearly distinguish scores on the 46 inch (117 cm) HDTV monitor which were previously indecipherable. For example, they could clearly see scores of 65 vs. 66, and of 98 vs. 99. […] The subject continues to use the eye wipes as an aid to their vision on an “as needed basis”, and the improved visual acuity is a reproducible event.
Their principal complaints were of dryness, itch, and discomfort at the corner of their eyes and blurred vision. These symptoms were present on a daily basis at various levels of intensity. […] It was not clear if they adhered to a strict regimen of self-administration, but they complained of the eye drops running down their cheeks and the expense of the medications. When the symptoms were severe, the subject found some relief by wetting their eyes with cold tap water, but the relief was only temporary. They volunteered to test an eye wipe containing 0.8 mL of a 4 mg/mL solution of CPS-030, and was given instructions on how to apply the solution onto the eyelids with the eyes shut.

For series [5], the system named is closed eyelids. Nature of the series: Eye wipe test: cooling sensations after wiping test solution over closed eyelids. To be noted: for sensations accompanying cooling: 1 mg/mL in 1 or 2% ethanol-water, closed eyelids. It counts as in vivo, human.
Where [6] appears, read: dry eyes syndrome, eye wipe 0.8 mL of 4 mg/mL.
The mark [7] stands for this setting: eye strain, eye wipe 0.8 mL of 4 mg/mL.

The structures appear in SMILES notation. ≈ marks a conversion by molar mass, not a printed value. Where only a bound is given, the exact number is not on record here.

As to `CC(C)[C@@H]1CC[C@@H](C)C[C@H]1C(=O)NCC(=O)OCCCO` [CPS-160, 2-[((1R,2S,5R)-2-isopropyl-5-methyl-cyclohexanecarbonyl)-amino]-acetic acid 3-hydroxypropyl ester], the duration of cooling entry in series [1] (2 mg/mL in saline, eye wipe) is reported as “approximately 0.6 hours”. Besides, the “quality of cooling sensation” value in series [1] (saline, eye wipe) is “Robust and refreshing cooling”. For the same compound, the “stability of solution stored at room temperature” value in series [2] is “not stable and became inactive after 2 days”. In series [3], the “solubility in saline solution” value was “solubilized in saline solution”.

As to `CC(C)[C@@H]1CC[C@@H](C)C[C@H]1C(=O)OCC(O)CO` (stereo partly drawn) [Compound 1, (1R,2S,5R)-2-isopropyl-5-methyl-cyclohexanecarboxylic acid 2,3-dihydroxy-propyl ester], in series [1] (32 μg, 64 μg and 128 μg per eye, saline, eye wipe), the sensations accompanying cooling result is “cooling was accompanied by a sensation of “wetness” and increased visual acuity”. In addition, the “duration of eye refreshment” value in series [1] (4.0 mg/mL in saline, 16 μL per eye, sterile pad) was “approximately 1 hour”. Moreover, the “sensations of sting, irritation or pain” value in series [1] (all dosages tested (16-128 μg per eye)) is listed as “no sensations of sting, irritation, or pain”. Further, the “effective dose via eye wipe” value in series [1] (delivered via a 2.0 mg/mL solution in an eye wipe) is on record as about 32 μg/eye. Moreover, the “quality of cooling sensation” value in series [1] (saline, eye wipe) was “Robust and refreshing cooling”. Further, the “symptomatic relief on as-needed use” value in series [4] (dry eyes syndrome, as needed for three months) is reported as “expressed satisfaction at the relief of eye discomfort”. Moreover, in series [4] (setting [6]), the “duration of cooling and soothing sensations” value was “at least 1 hour”; the “onset of cooling and soothing sensations” value was “Within two minutes”; the sensations reported result is “sensation of “wetness”, and a feeling of soothing and comfort”. For the same compound, in series [4] (setting [7]), the “duration of cooling and soothing sensations” value is “at least two hours”; the “effect on visual acuity” value is “increase in visual acuity”; the “onset of cooling and soothing sensations” value is listed as “Within two minutes”. Besides, the “stability of solution stored at room temperature” value in series [2] is “retained biological potency when stored at room temperature for at least three weeks”. In addition, in series [3], the “solubility in saline solution” value is “miscible and solubilized in saline solution”.

As for `CC(C)[C@@H]1CC[C@@H](C)C[C@H]1C(=O)OCCOCCO` [Compound 2], the duration of cooling entry in series [1] (10 mg/mL, eye wipe) is on record as “less than 30 minutes”. In series [1] (10 mg/mL, eye wipe, scale 0-3), this compound registered a cooling intensity of under 2 coolness units.

On to `CC(C)[C@@H]1CC[C@@H](C)C[C@H]1C(=O)OCCO` [Compound 3], for which the adverse sensations entry in series [1] (higher two doses of 32 to 160 μg/eye range) is “brief period of warmth sensations on the eye surface and increased lachrymation”. The “cooling potency relative to CPS-030” value in series [1] was “about half the potency of CPS-030”.

Consider `COC(=O)[C@@H](C)NC(=O)[C@@H]1C[C@H](C)CC[C@H]1C(C)C` [Compound 9], for which, in series [1], the “cooling potency relative to CPS-030” value was “more potent cooling activity than CPS-030”. The “solubility in 1 or 2% ethanol-water solution” value in series [3] stood at 1000 µg/mL (≈ 3.71 mM). Moreover, the sensations accompanying cooling result in series [5] was “without any sensations of wetness or increased visual acuity”.

For `COC(=O)CNC(=O)[C@@H]1C[C@H](C)CC[C@H]1C(C)C` [Compound 10, reference compound], the “cooling potency relative to CPS-030” value in series [1] is reported as “more potent cooling activity than CPS-030”. Also, in series [3], the “solubility in 1 or 2% ethanol-water solution” value came out at 1000 µg/mL (≈ 3.92 mM). For the same compound, the sensations accompanying cooling result in series [5] is on record as “without any sensations of wetness or increased visual acuity”.

For `CCOC(=O)[C@@H](C)NC(=O)[C@@H]1C[C@H](C)CC[C@H]1C(C)C` [Compound 12, (R)-2-[((1R,2S,5R)-2-isopropyl-5-methyl-cyclohexanecarbonyl)-amino]-propionic acid ethyl ester], the duration of cooling entry in series [1] (1 mg/mL dispersed in saline, eye wipe) is “approximately 1.5 hours”; in series [1] (2 mg/mL in saline, eye wipe), about 2.5 h. The “quality of cooling sensation” value in series [1] (saline, eye wipe) is “Robust and refreshing cooling”. Besides, in series [1] (solid dispersed in saline, 1 and 2 mg/mL), the “side-effect when eyelids get wet after testing” value is “the cooling sensations returned, sometimes with an intensity that could cause discomfort”. Moreover, in series [5] (30 mg in 0.1 mL ethanol + 7.4 mL glycerol + 7.5 mL water), the cooling sensation result is “Mild and persistent cooling”.
